Values of other authors in US20160331794A1, “COMPOSITION FOR USE IN THE TREATMENT OF PERSISTENT COUGH” (ABOCA S.P.A SOCIETÁ AGRICOLA, priority 2013, published 2016).

Key:
cough = settings: Lee et al. 2000; cited from earlier work
night cough in children = settings: Yoder et al. 2006; cited from earlier work

COc1ccc2c(c1)[C@]13CCCC[C@@H]1[C@H](C2)N(C)CC3 [dextromethorphan]
efficacy in the treatment of coughs versus placebo (cough): only marginally better than the placebo | diminishing night cough in children versus placebo (night cough in children): Neither dextromethorphan nor diphenhydramine have been found to be better than the placebo

CN(C)CCOC(c1ccccc1)c1ccccc1 [diphenhydramine]
diminishing night cough in children versus placebo (night cough in children): Neither dextromethorphan nor diphenhydramine have been found to be better than the placebo
